Measured values taken from patent US20260151379A1, “SALT TYPE AND CRYSTAL FORM OF COMPLEMENT FACTOR B INHIBITOR, AND PREPARATION METHOD THEREFOR AND APPLICATION THEREOF” (SHANGHAI MEIYUE BIOTECH DEVELOPMENT CO., LTD., priority 2022, published 2026).

Key:
[1] = PK of single intragastric administration to cynomolgus monkeys (plasma concentration); assay type: in vivo; conditions: intragastric 3 mpk and 30 mpk, same dose as control compound
Procedure: (§1) Cynomolgus monkeys were used. Each group consisted of 3 cynomolgus monkeys, and they were given the control compound at 3 mpk, the control compound at 30 mpk, the compound of formula I at 3 mpk, and the compound of formula I at 30 mpk by intragastric administration. Blood was collected at different time points and used for drug concentration analysis and complement activity detection. The compound concentration in plasma was determined by LC-MS/MS. The complement activity in serum was determined using a wieslab assay (Svar Life Science AB, COMPL AP330 RUO) kit, Normal Human Serum (Complement Technology, NHS).

[2] = tested on: Streptococcus-induced rheumatoid arthritis; test: Streptococcus-induced rheumatoid arthritis (RA) model in rats; assay type: in vivo; conditions: female Lewis rats, 15 mpk intragastric daily for 25 days
Procedure: In the experiment, 6- to 9-week-old female Lewis rats (Beijing Vital River) were used. Each group consisted of 6 rats, and they were given the cell wall peptidoglycan complexes of Streptococcus and several other species of bacteria by intraperitoneal administration (2-3 mg per rat) on D1, and were given the control compound (15 mpk) and the compound of formula I (15 mpk) by intragastric administration daily for 25 consecutive days. The arthritis in rats was scored in different phases. The scoring criteria are as follows: […] The scoring criteria are as follows: 0 points, no redness and swelling; 1 point, 1-2 red and swollen interphalangeal joints; 2 points, 3-4 red and swollen interphalangeal joints; 3 points, more than 4 red and swollen interphalangeal joints; 4 points, severe redness and swelling in toes or fingers to ankle joints or wrist joints.

[3] = Liver microsomal stability experiment (rat); assay type: in vitro ADME; conditions: rat liver microsomes
Procedure: (§2) A 0.1 M solution of dipotassium phosphate in distilled water (containing 1 mM ethylenediaminetetraacetic acid) was taken. Then the pH was adjusted to 7.4 with a 0.1 M solution of potassium dihydrogen phosphate in distilled water (containing 1 mM ethylenediaminetetraacetic acid).
(§3) • Rat: SD Rat Liver Microsomes, Cat. No.: LM-DS-02M, RILD Research Institute for Liver Diseases (Shanghai) Co. Ltd. • Monkey: Cynomolgus Monkey Liver Microsomes, Cat. No.: LM-SXH-02M, RILD Research Institute for Liver Diseases (Shanghai) Co. Ltd. • Human: Pooled Human Liver Microsomes (Mongolian), Cat. No.: LM-R-02M, RILD Research Institute for Liver Diseases (Shanghai) Co. Ltd.
(§4) A 10 mM solution of each of the control compound and test compounds was prepared in DMSO. Then 10 μL of the solution was added to 190 μL of acetonitrile to form a 0.5 mM stock solution. 1.5 μL of the 0.5 mM stock solution was measured out, and […] of 20 mg/mL liver microsomes and 479.75 μL of the buffer were added. (The actual preparation amount can be adjusted according to use).
(§5) 10 mg/mL of reduced coenzyme II (NADPH) was prepared in the buffer. A 96-well plate was placed on ice. Wells corresponding to different time points (0, 10, 30, 60 and 90 min, Non-NADPH) were set for each compound. […] The mixture was analyzed on an AB SCIEX ExionLC-Triple Quad 5500 high-performance liquid chromatograph-mass spectrometer. […]

[4] = molecular target: T1, complement factor B in human serum (Homo sapiens, UniProt P00751); test: Complement hemolytic activity assay (rabbit erythrocytes, normal human serum); assay type: cell-based; conditions: versus control compound
T1 construct: from tissue; host or cells: normal human serum (NHS)
Procedure: Prior to the experiment, the optimal concentration of normal human serum (NHS) required to achieve 100% lysis of rabbit erythrocytes (REs) was obtained by titration testing. […] A GVB0 buffer containing 10 mM Mg-EGTA and containing NHS and RE but no test compound was used as a positive control group (100% lysis). A GVB0 buffer containing 10 mM Mg-EGTA and containing inactivated NHS (heated at 56° C. for 30 min or at 65° C. for 5 min) and RE but no test compound was used as a negative control group (0% lysis). […] Absorbance at 415 nm (A415) was measured using a microplate reader (Molecular Devices, SpectraMax i3X). IC50 values were calculated from percent hemolysis as a function of test compound concentration by non-linear regression.

[5] = Stability tests of compound of formula I and its monohydrochloride, phosphate and maleate (Example 4); assay type: physicochemical
Procedure: The stability of the compound of formula I, the monohydrochloride of the compound of formula I in Example 1, the phosphate of the compound of formula I in Example 2, and the maleate of the compound of formula I in Example 3 were investigated.
Stability investigation conditions: 40° C./75% RH-closed, 40° C./75% RH-open, and 60° C.-closed; stability investigation content: changes in related substances and crystal forms.
Detection of related substances: about 6-7 mg of a sample was separately weighed out and added to a 10 mL volumetric flask; 50% aqueous acetonitrile solution was added for dissolution; the mixture was diluted to volume; and 10 μL of the sample was injected.

[6] = tested on: cynomolgus monkey serum AP activity; test: PD of single intragastric administration to cynomolgus monkeys (serum complement AP activity, wieslab assay); assay type: in vivo; conditions: intragastric 3 mpk and 30 mpk
Procedure: as §1

[7] = Liver microsomal stability experiment (monkey); assay type: in vitro ADME, cynomolgus monkey; conditions: monkey liver microsomes
Procedure: as §2, §3, §4, §5

T1 sequence (P00751 26-764): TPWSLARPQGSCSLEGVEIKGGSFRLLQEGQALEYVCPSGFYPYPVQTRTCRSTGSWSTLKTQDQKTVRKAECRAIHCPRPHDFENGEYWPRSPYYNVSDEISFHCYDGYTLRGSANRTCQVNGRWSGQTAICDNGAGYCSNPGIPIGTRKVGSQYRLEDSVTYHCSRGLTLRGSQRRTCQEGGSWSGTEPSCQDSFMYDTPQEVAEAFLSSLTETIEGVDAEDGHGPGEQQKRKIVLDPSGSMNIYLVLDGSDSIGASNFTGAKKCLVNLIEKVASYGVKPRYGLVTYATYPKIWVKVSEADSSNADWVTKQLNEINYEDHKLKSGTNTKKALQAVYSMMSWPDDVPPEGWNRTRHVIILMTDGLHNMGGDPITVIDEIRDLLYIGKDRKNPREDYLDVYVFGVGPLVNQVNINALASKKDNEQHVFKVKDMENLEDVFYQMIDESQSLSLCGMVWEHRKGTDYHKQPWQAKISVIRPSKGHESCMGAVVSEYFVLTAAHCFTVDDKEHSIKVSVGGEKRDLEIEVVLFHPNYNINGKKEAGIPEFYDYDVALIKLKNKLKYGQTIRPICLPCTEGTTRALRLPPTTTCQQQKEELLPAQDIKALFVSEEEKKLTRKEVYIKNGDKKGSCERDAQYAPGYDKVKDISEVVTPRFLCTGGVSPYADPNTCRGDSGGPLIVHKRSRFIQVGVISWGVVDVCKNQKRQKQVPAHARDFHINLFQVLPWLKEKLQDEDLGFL

COc1cc(C)c2[nH]ccc2c1CN1CC[C@H](OCC2CC2)C[C@H]1c1ccc(C(=O)O)cc1 [Compound of formula I]
Mean plasma concentration (in words, FIG. 21) [1]: significantly higher mean plasma concentration than that of the control compound
Arthritis score (in words, FIG. 23) [2]: can improve the arthritis score
Effect on arthritis score versus control compound (in words) [2]: significantly better effect than that of the control compound
MMS (rat) Remaining (T = 90 min) [3]: 89.14%
Inhibitory activity against complement factor B in human serum (in words) [4]: significantly better inhibitory activity against complement factor B in human serum than that of the control compound
Stability (conclusion in words from Table 7) ([5]; 40° C./75% RH closed/open and 60° C. closed, 2 wks, listed as compound of formula I): stable
Maximum single impurity % ([5]; 40° C./75% RH-closed-2 wks): 0.16%
Purity % ([5]; 40° C./75% RH-closed-2 wks): 99.23%
Total impurity % ([5]; 40° C./75% RH-closed-2 wks): 0.77%
Maximum single impurity % ([5]; 40° C./75% RH-open-2 wks): 0.17%
Purity % ([5]; 40° C./75% RH-open-2 wks): 99.24%
Total impurity % ([5]; 40° C./75% RH-open-2 wks): 0.76%
Maximum single impurity % ([5]; 60° C.-closed-2 wks): 0.33%
Purity % ([5]; 60° C.-closed-2 wks): 98.95%
Total impurity % ([5]; 60° C.-closed-2 wks): 1.05%
Maximum single impurity % ([5]; Initial): 0.10%
Purity % ([5]; Initial): 99.28%
Total impurity % ([5]; Initial): 0.72%
Inhibition of cynomolgus monkey serum AP activity (in words, FIG. 22) [6]: can effectively inhibit the cynomolgus monkey serum AP activity
MMS (monkey) Remaining (T = 90 min) [7]: 93.32%
